Laboratory results: ChEMBL document CHEMBL2380302, “Synthesis of 3-O-propargylated betulinic acid and its 1,2,3-triazoles as potential apoptotic agents” (Eur J Med Chem, 2013)

Legend:
THP-1 [1] = assay: Cytotoxicity against human THP1 cells at 30 uM after 48 hrs by SRB assay; assay type: functional; conditions: THP-1, 48 h, read-out: GI
HL-60 [2] = assay: Cytotoxicity against human HL60 cells at 30 uM after 48 hrs by SRB assay; assay type: functional; conditions: HL-60, 48 h, read-out: GI
PC-3 [3] = assay: Cytotoxicity against human PC3 cells after 48 hrs by SRB assay; assay type: functional, cell-based; conditions: PC-3, 48 h
MCF7 [4] = assay: Cytotoxicity against human MCF7 cells at 50 uM after 48 hrs by SRB assay; assay type: functional; conditions: MCF7, 48 h, read-out: GI
PC-3 [5] = assay: Cytotoxicity against human PC3 cells at 10 uM after 48 hrs by SRB assay; assay type: functional; conditions: PC-3, 48 h, read-out: GI
MCF7 [6] = assay: Cytotoxicity against human MCF7 cells at 30 uM after 48 hrs by SRB assay; assay type: functional; conditions: MCF7, 48 h, read-out: GI
PC-3 [7] = assay: Cytotoxicity against human PC3 cells at 30 uM after 48 hrs by SRB assay; assay type: functional; conditions: PC-3, 48 h, read-out: GI
HL-60 [8] = assay: Cytotoxicity against human HL60 cells at 10 uM after 48 hrs by SRB assay; assay type: functional; conditions: HL-60, 48 h, read-out: GI
HL-60 [9] = assay: Cytotoxicity against human HL60 cells at 50 uM after 48 hrs by SRB assay; assay type: functional; conditions: HL-60, 48 h, read-out: GI
MCF7 [10] = assay: Cytotoxicity against human MCF7 cells after 48 hrs by SRB assay; assay type: functional, cell-based; conditions: MCF7, 48 h
SF-295 [11] = assay: Cytotoxicity against human SF295 cells at 30 uM after 48 hrs by SRB assay; assay type: functional; conditions: SF-295, 48 h, read-out: GI
SF-295 [12] = assay: Cytotoxicity against human SF295 cells at 10 uM after 48 hrs by SRB assay; assay type: functional; conditions: SF-295, 48 h, read-out: GI
THP-1 [13] = assay: Cytotoxicity against human THP1 cells after 48 hrs by SRB assay; assay type: functional, cell-based; conditions: THP-1, 48 h
MCF7 [14] = assay: Cytotoxicity against human MCF7 cells at 10 uM after 48 hrs by SRB assay; assay type: functional; conditions: MCF7, 48 h, read-out: GI
THP-1 [15] = assay: Cytotoxicity against human THP1 cells at 10 uM after 48 hrs by SRB assay; assay type: functional; conditions: THP-1, 48 h, read-out: GI
DU-145 [16] = assay: Cytotoxicity against human DU145 cells after 48 hrs by SRB assay; assay type: functional, cell-based; conditions: DU-145, 48 h
A549 [17] = assay: Cytotoxicity against human A549 cells at 30 uM after 48 hrs by SRB assay; assay type: functional; conditions: A549, 48 h, read-out: GI
HCT-15 [18] = assay: Cytotoxicity against human HCT15 cells after 48 hrs by SRB assay; assay type: functional, cell-based; conditions: HCT-15, 48 h
DU-145 [19] = assay: Cytotoxicity against human DU145 cells at 10 uM after 48 hrs by SRB assay; assay type: functional; conditions: DU-145, 48 h, read-out: GI
THP-1 [20] = assay: Cytotoxicity against human THP1 cells at 50 uM after 48 hrs by SRB assay; assay type: functional; conditions: THP-1, 48 h, read-out: GI
HCT-15 [21] = assay: Cytotoxicity against human HCT15 cells at 50 uM after 48 hrs by SRB assay; assay type: functional; conditions: HCT-15, 48 h, read-out: GI
HEp-2 [22] = assay: Cytotoxicity against human Hep2 cells at 50 uM after 48 hrs by SRB assay; assay type: functional; conditions: HEp-2, 48 h, read-out: GI
HEp-2 [23] = assay: Cytotoxicity against human Hep2 cells after 48 hrs by SRB assay; assay type: functional, cell-based; conditions: HEp-2, 48 h
DU-145 [24] = assay: Cytotoxicity against human DU145 cells at 50 uM after 48 hrs by SRB assay; assay type: functional; conditions: DU-145, 48 h, read-out: GI
A549 [25] = assay: Cytotoxicity against human A549 cells after 48 hrs by SRB assay; assay type: functional, cell-based; conditions: A549, 48 h
HL-60 [26] = assay: Cytotoxicity against human HL60 cells after 48 hrs by SRB assay; assay type: functional, cell-based; conditions: HL-60, 48 h
A549 [27] = assay: Cytotoxicity against human A549 cells at 50 uM after 48 hrs by SRB assay; assay type: functional; conditions: A549, 48 h, read-out: GI
HEp-2 [28] = assay: Cytotoxicity against human Hep2 cells at 30 uM after 48 hrs by SRB assay; assay type: functional; conditions: HEp-2, 48 h, read-out: GI
SF-295 [29] = assay: Cytotoxicity against human SF295 cells at 50 uM after 48 hrs by SRB assay; assay type: functional; conditions: SF-295, 48 h, read-out: GI
HCT-15 [30] = assay: Cytotoxicity against human HCT15 cells at 10 uM after 48 hrs by SRB assay; assay type: functional; conditions: HCT-15, 48 h, read-out: GI
HEp-2 [31] = assay: Cytotoxicity against human Hep2 cells at 10 uM after 48 hrs by SRB assay; assay type: functional; conditions: HEp-2, 48 h, read-out: GI
PC-3 [32] = assay: Cytotoxicity against human PC3 cells at 50 uM after 48 hrs by SRB assay; assay type: functional; conditions: PC-3, 48 h, read-out: GI
A549 [33] = assay: Cytotoxicity against human A549 cells at 10 uM after 48 hrs by SRB assay; assay type: functional; conditions: A549, 48 h, read-out: GI
HCT-15 [34] = assay: Cytotoxicity against human HCT15 cells at 30 uM after 48 hrs by SRB assay; assay type: functional; conditions: HCT-15, 48 h, read-out: GI
DU-145 [35] = assay: Cytotoxicity against human DU145 cells at 30 uM after 48 hrs by SRB assay; assay type: functional; conditions: DU-145, 48 h, read-out: GI
SF-295 [36] = assay: Cytotoxicity against human SF295 cells after 48 hrs by SRB assay; assay type: functional, cell-based; conditions: SF-295, 48 h

Row | Compound | inhibition of growth at 30 µM (THP-1 [1]) [%] | inhibition of growth at 30 µM (HL-60 [2]) [%] | IC50 (PC-3 [3]) [µM] | inhibition of growth at 50 µM (MCF7 [4]) [%] | inhibition of growth at 10 µM (PC-3 [5]) [%] | inhibition of growth at 30 µM (MCF7 [6]) [%] | inhibition of growth at 30 µM (PC-3 [7]) [%] | inhibition of growth at 10 µM (HL-60 [8]) [%] | inhibition of growth at 50 µM (HL-60 [9]) [%] | IC50 (MCF7 [10]) [µM] | inhibition of growth at 30 µM (SF-295 [11]) [%] | inhibition of growth at 10 µM (SF-295 [12]) [%] | IC50 (THP-1 [13]) [µM] | inhibition of growth at 10 µM (MCF7 [14]) [%] | inhibition of growth at 10 µM (THP-1 [15]) [%] | IC50 (DU-145 [16]) [µM] | inhibition of growth at 30 µM (A549 [17]) [%] | IC50 (HCT-15 [18]) [µM] | inhibition of growth at 10 µM (DU-145 [19]) [%] | inhibition of growth at 50 µM (THP-1 [20]) [%] | further results
1 | C=C(C)[C@@H]1CC[C@]2(C(=O)O)CC[C@]3(C)[C@H](CC[C@@H]4[C@@]5(C)CC[C@H](OCc6cn(-c7ccc(OC)cc7)nn6)C(C)(C)[C@@H]5CC[C@]43C)[C@@H]12 | 77 | 82 | 49 | 93 | 5 | 62 | 8 | 54 | 99 | 14 | 46 | 20 | 10 | 44 | 50 | 48 | 40 | 8 | 35 | 97 | inhibition of growth at 50 µM (HCT-15 [21]): 57%; inhibition of growth at 50 µM (HEp-2 [22]): 74%; IC50 (HEp-2 [23]): 23 µM; inhibition of growth at 50 µM (DU-145 [24]): 53%; IC50 (A549 [25]): 50 µM; IC50 (HL-60 [26]): 8 µM; inhibition of growth at 50 µM (A549 [27]): 51%; inhibition of growth at 30 µM (HEp-2 [28]): 54%; inhibition of growth at 50 µM (SF-295 [29]): 59%; inhibition of growth at 10 µM (HCT-15 [30]): 55%; inhibition of growth at 10 µM (HEp-2 [31]): 41%; inhibition of growth at 50 µM (PC-3 [32]): 52%; inhibition of growth at 10 µM (A549 [33]): 38%; inhibition of growth at 30 µM (HCT-15 [34]): 55%; inhibition of growth at 30 µM (DU-145 [35]): 37%; IC50 (SF-295 [36]): 44 µM
2 | C=C(C)[C@@H]1CC[C@]2(C(=O)O)CC[C@]3(C)[C@H](CC[C@@H]4[C@@]5(C)CC[C@H](OCc6cn(C7O[C@H](COC(C)=O)[C@H](OC(C)=O)[C@H](OC(C)=O)[C@H]7OC(C)=O)nn6)C(C)(C)[C@@H]5CC[C@]43C)[C@@H]12 (some centres not stated) | 61 | 66 | > 50 | 52 | 5 | 44 | 32 | 62 | 74 | 45 | 20 | 8 | 50 | 35 | 50 | > 50 | 10 | 28 | 8 | 72 | inhibition of growth at 50 µM (HCT-15 [21]): 63%; inhibition of growth at 50 µM (HEp-2 [22]): 58%; IC50 (HEp-2 [23]): 40 µM; inhibition of growth at 50 µM (DU-145 [24]): 36%; IC50 (A549 [25]): > 50 µM; IC50 (HL-60 [26]): 5.5 µM; inhibition of growth at 50 µM (A549 [27]): 37%; inhibition of growth at 30 µM (HEp-2 [28]): 41%; inhibition of growth at 50 µM (SF-295 [29]): 39%; inhibition of growth at 10 µM (HCT-15 [30]): 39%; inhibition of growth at 10 µM (HEp-2 [31]): 25%; inhibition of growth at 50 µM (PC-3 [32]): 40%; inhibition of growth at 10 µM (A549 [33]): 6%; inhibition of growth at 30 µM (HCT-15 [34]): 51%; inhibition of growth at 30 µM (DU-145 [35]): 20%; IC50 (SF-295 [36]): > 50 µM
